The values that follow come from BindingDB's records for doi:10.1124/jpet.104.071282 (Neurocrine Biosciences, 2004).

The target in the assay is Gamma-aminobutyric acid receptor subunit alpha-1 (Rattus norvegicus, UniProt P62813).

Structures are written as SMILES. Values joined by “and” are separate entries in the source; they are usually repeats but may differ in a detail not shown here. Equal values may be shown once.

Sequence of Gamma-aminobutyric acid receptor subunit alpha-1 (P62813 whole entry): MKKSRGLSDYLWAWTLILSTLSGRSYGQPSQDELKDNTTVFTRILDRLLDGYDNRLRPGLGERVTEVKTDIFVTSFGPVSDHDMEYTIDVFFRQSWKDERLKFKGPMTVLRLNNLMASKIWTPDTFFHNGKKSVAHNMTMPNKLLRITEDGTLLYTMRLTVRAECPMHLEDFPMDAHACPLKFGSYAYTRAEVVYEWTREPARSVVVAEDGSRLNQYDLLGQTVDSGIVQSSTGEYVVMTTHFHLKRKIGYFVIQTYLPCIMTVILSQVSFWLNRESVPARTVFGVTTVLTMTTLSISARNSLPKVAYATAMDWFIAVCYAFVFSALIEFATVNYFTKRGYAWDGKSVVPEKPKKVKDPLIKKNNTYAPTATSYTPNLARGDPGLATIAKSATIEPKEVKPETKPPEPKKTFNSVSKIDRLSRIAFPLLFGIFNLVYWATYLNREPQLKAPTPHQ

Usually Ki stands for a dissociation constant, usually derived from enzyme kinetics or from competition with a known ligand. Read a high Ki as weaker binding. Take `Cc1nnc2n1-c1ccc(Cl)cc1C(c1ccccc1Cl)=NC2` [Halcion]: the Ki is 0.34 nM and 0.31 nM and 0.55 nM and 0.45 nM.
